From paper PMC8911775, “Phosphodiester Silybin Dimers Powerful Radical Scavengers: A Antiproliferative Activity on Different Cancer Cell Lines” (Molecules, 2022)

Key:
Jurkat = test: Antiproliferative activity on Jurkat cells (CCK-8); format: cell-based; settings: Homo sapiens, 48 h incubation
Method: (§1) Human T lymphoblastoid (Jurkat) and human metastatic melanoma (WM266) cell lines were grown in RPMI medium supplemented with heat inactivated 10% fetal bovine serum (FBS), 2.5 mM glutamine, 100 U/mL penicillin, and 100 μg/mL streptomycin (Euroclone). Human cervix adenocarcinoma cell line (HeLa), human lung carcinoma (A549), human pancreatic cancer (PANC), human glioblastoma (U87) normal human fibroblasts (HDF) were grown in DMEM supplemented with 10% fetal bovine serum (FBS), 1% glutamine, 100 U/mL penicillin and 100 μg/mL streptomycin (Euroclone, Milano, Italy). Cells were maintained in humidified air containing 5% CO2, at 37 °C [30].
(§2) Cells were plated at density of 10,000 cells/well for Jurkat, 2000/well for WM266 and HDF, 1200 cells/well for HeLa, and 1000 for PANC, U87 and A375 in 96-well microplates (Thermofisher, Waltham, MA, USA). After 24 h incubation, cells were treated with increasing concentrations of synthetized compounds previously solubilized in DMSO at 50 mM concentration. Cell proliferation was determined by using (2-(2-methoxy-4-nitrophenyl)-3-(4-nitrophenyl)-5-(2,4-disulfophenyl)-2H-tetrazolium, monosodium salt (CCK-8, Sigma Aldrich) for Jurkat cells, and the 3-(4,5-dimethylthiazol-2-yl)-2,5- diphenyltetrazolium bromide assay (MTT, Sigma Aldrich, Sigma Aldrich, St. Louis, MO, USA)) for HeLa, WM266, PANC, U87 and HDF cells, after 48 h treatment. Plates were then analyzed by using a microplate reader (Enspire, Perkin Elmer Italia Spa, Milano, Italy) at 450 (CCK-8) or 570 nm (MTT).
(§3) The results are presented as the percentage of proliferating cells respect to the control (vehicle treated cells) and are expressed as means ± SE of, at least, three independent experiments performed in triplicate. The statistical analysis was performed using Student’s t-test, unpaired, two-sided, p < 0.05 was considered significant. The IC50 values were calculated by GraphPad Prism software.

[1] = Apoptosis assay, annexin V-FITC/PI double staining, flow cytometry; format: cell-based, Human; settings: human, Jurkat cells, 37 °C, Figure 4, read-out: viable cells (lower left quadrant)
Method: (§4) For this purpose, Jurkat was incubated with the molecules at a concentration of 200 μM, and flow cytometric analysis with annexin V/propidium iodine (PI) double staining was carried out.
(§5) The apoptosis analysis was performed on Jurkat cells seeded at 2.5 × 10^5 cells/mL in a 6-well plate. The cells were incubated in the absence or presence of 200 μM concentration of examined compounds at 37 °C and apoptosis induction was analysed after 48 h by double staining with annexin V/FITC and propidium iodide (PI) (eBioscience, Affimetrix Santa Clara, CA, USA). The cells undergoing apoptosis were quantified using a flow cytometer equipped with a 488 nm argon laser (Becton Dickinson, Franklin Lakes, NJ, USA) by Cell Quest software. All FACS analyses were performed at least 2 times.

Jurkat cells = test: as above; format: cell-based, Human; settings: 200 μM, 48 h
Method: as §4, §5

HDF = test: Antiproliferative activity on normal human fibroblasts HDF; format: cell-based; settings: 48 h incubation
Method: as §1, §2, §3

[2] = Hydroxyl radical (HO•) scavenging, second-order rate constant by laser flash photolysis (thiocyanate competition); settings: calculated in H2O; mean of three replicates
Excerpt: Biologically, the hydroxyl radical (HO^●) is widely believed to be generated when hydrogen peroxide reacts with Fe(II) (Fenton reaction). The putative HO^●∙is an extremely reactive and short-lived species that can damage DNA, proteins, and lipids. However, the Fe(II)/H2O2 mixture has disadvantages in a scavenging assay because many flavonoids as well as flavonolignans are also metal chelators. When the sample is mixed with Fe(II), it may alter the activity of Fe(II) by chelation. As a result, it is impossible to distinguish if the antioxidants are simply good metal chelators or HO^● scavengers. In our study the second order rate constants for HO^● reactions with silybin dimers (6aa, 6bb and 6ab) have been determined by pulse photolysis method using hydrogen peroxide (H2O2) as ROS sources. […] This could be explained considering that in dimers 9′′-9′′ the 3, 5 and 4′′ OH functions, responsible for the radical scavenger activity, are not involved in any bond. […]
The reactivity constant between new silybin dimers and hydroxyl radical has been determined using Laser flash Photolysis system. […]
The formation of di-thiocyanate radical anion (SCN2^●−) through reactivity of photogenerated hydroxyl radicals (HO^●) with thiocyanate (SCN^- in the presence of hydrogen peroxide. The second-order rate constants between HO^● and dimers were determined following reactions (R1–R4 in the Section 2.2) and using the following equation:(1) Abs0/Abs=1+kHO^•,DimerII[Dimer]/kHO^•,SCN^−II[SCN^−] where Abs0 and Abs are the absorption of SCN2•− at 475 nm in absence and presence of dimers; kHO^•,SCN^−II and kHO^•,DimerII are the second-order rate constants of HO^● with thiocyanate and dimers at different concentrations. […] Means were compared by one way analysis of variance (ANOVA) and significant differences were assessed by post hoc tests of least significant. […]

[3] = design: method as in PMID 28800072; settings: estimated, relative to silibinin; cited from earlier work

Structure (SMILES)	IC50 (Jurkat)	viability at 48 h, 200 µM [1]	apoptotic cells (early and advanced) with respect to the control (Jurkat cells)	IC50 (HDF)	Second order rate constant kHO•,X II [2]	reactivity towards HO• with respect to silibinin [3]
COc1cc([C@@H]2Oc3cc([C@H]4Oc5cc(O)cc(O)c5C(=O)[C@@H]4O)ccc3O[C@H]2COP(=O)(O)OC[C@@H]2Oc3ccc([C@H]4Oc5cc(O)cc(O)c5C(=O)[C@@H]4O)cc3O[C@H]2c2ccc(O)c(OC)c2)ccc1O [Compound 6bb]	59 ± 19.9 µM	84.8%	4%	> 200 µM	1.01 ± 0.16 × 10^10 M^−1·s^−1	
COc1cc(C2Oc3cc([C@H]4Oc5cc(O)cc(O)c5C(=O)[C@@H]4O)ccc3OC2COP(=O)(O)OCC2Oc3ccc([C@H]4Oc5cc(O)cc(O)c5C(=O)[C@@H]4O)cc3OC2c2ccc(O)c(OC)c2)ccc1O (stereo partly shown) [9′′-9′′]						about two times
COc1cc([C@H]2Oc3cc([C@H]4Oc5cc(O)cc(O)c5C(=O)[C@@H]4O)ccc3O[C@@H]2CO)ccc1O [Compound 1a, silybin A, reference compound]	46.7 ± 14.1 µM	20.2%	70%	199 ± 34.5 µM		
COc1cc([C@H]2Oc3cc([C@H]4Oc5cc(O)cc(O)c5C(=O)[C@@H]4O)ccc3O[C@@H]2COP(=O)(O)OC[C@@H]2Oc3ccc([C@H]4Oc5cc(O)cc(O)c5C(=O)[C@@H]4O)cc3O[C@H]2c2ccc(O)c(OC)c2)ccc1O [Compound 6ab]	64 ± 10.8 µM	63.6%	about 25%	> 200 µM	1.48 ± 0.09 × 10^10 M^−1·s^−1	
COc1cc([C@@H]2Oc3cc([C@H]4Oc5cc(O)cc(O)c5C(=O)[C@@H]4O)ccc3O[C@H]2CO)ccc1O [Compound 1b, silybin B, reference compound]	36 ± 14.3 µM	17.1%	70%	172 ± 39 µM		
COc1cc(C2Oc3cc([C@H]4Oc5cc(O)cc(O)c5C(=O)[C@@H]4OP(=O)(O)OCC4Oc5ccc([C@H]6Oc7cc(O)cc(O)c7C(=O)[C@@H]6O)cc5OC4c4ccc(O)c(OC)c4)ccc3OC2CO)ccc1O (stereo partly shown) [3-9′′]						about two times
COc1cc([C@H]2Oc3cc([C@H]4Oc5cc(O)cc(O)c5C(=O)[C@@H]4O)ccc3O[C@@H]2COP(=O)(O)OC[C@H]2Oc3ccc([C@H]4Oc5cc(O)cc(O)c5C(=O)[C@@H]4O)cc3O[C@@H]2c2ccc(O)c(OC)c2)ccc1O [Compound 6aa]	71 ± 15.5 µM	73%	20%	> 200 µM	8.63 ± 1.35 × 10^9 M^−1·s^−1	
